The assay relates to MV-4-11 cells. In words: Gene expression microarray analysis (Affymetrix PrimeView) and GSEA. The format is cell-based, human. The arrangement: RFU PODN (11730768_x_at) / Fold change /veh PODN (11730768_x_at) / RFU LINC00158 (11744669_a_at) / Fold change /veh LINC00158 (11744669_a_at) / RFU DUSP10 (11751237_a_at) / Fold change /veh DUSP10 (11751237_a_at) / RFU ID3 (11757404_x_at) / Fold change /veh ID3 (11757404_x_at) / RFU PLEKHG5 (11737974_s_at) / Fold change /veh PLEKHG5 (11737974_s_at) / RFU LRRC4B (11730491_at) / Fold change /veh LRRC4B (11730491_at) / RFU GIMAP4 (11747438_a_at) / Fold change /veh GIMAP4 (11747438_a_at) / RFU KRT8 (11758183_x_at) / Fold change /veh KRT8 (11758183_x_at) / RFU CNN1 (11734310_a_at) / Fold change /veh CNN1 (11734310_a_at) / RFU VPS37D (11726825_at) / Fold change /veh VPS37D (11726825_at) / RFU C10orf10 (11716522_x_at) / Fold change /veh C10orf10 (11716522_x_at) / RFU KIR2DL2 /// KIR2DL4 /// KIR2DL5A /// KIR2DL5B /// KIR2DS1 /// KIR2DS2 /// KIR2DS3 /// KIR2DS4 /// KIR3DL3 /// KIR3DL3 /// KIR3DS1 (11738374_at) / Fold change /veh KIR2DL2 /// KIR2DL4 /// KIR2DL5A /// KIR2DL5B /// KIR2DS1 /// KIR2DS2 /// KIR2DS3 /// KIR2DS4 /// KIR3DL3 /// KIR3DL3 /// KIR3DS1 (11738374_at) / RFU C1QL1 (11718748_at) / Fold change /veh C1QL1 (11718748_at) / RFU TMPRSS4 (11747572_a_at) / Fold change /veh TMPRSS4 (11747572_a_at) / RFU HAMP (11756126_x_at) / Fold change /veh HAMP (11756126_x_at) / RFU RNFT2 (11725882_a_at) / Fold change /veh RNFT2 (11725882_a_at) / RFU NR4A2 (11747474_a_at) / Fold change /veh NR4A2 (11747474_a_at) / RFU ABCC12 (11746883_a_at) / Fold change /veh ABCC12 (11746883_a_at) / RFU TMEM136 (11760407_x_at) / Fold change /veh TMEM136 (11760407_x_at) / RFU CLDN22 /// WWC2 (11732394_at) / Fold change /veh CLDN22 /// WWC2 (11732394_at) / RFU HLA-DPB1 (11760878_x_at) / Fold change /veh HLA-DPB1 (11760878_x_at) / RFU SPINT1 (11716480_a_at) / Fold change /veh SPINT1 (11716480_a_at) / RFU GAP43 (11754022_s_at) / Fold change /veh GAP43 (11754022_s_at) / RFU A4GNT (11735810_at) / Fold change /veh A4GNT (11735810_at) / RFU PRB3 (11715151_x_at) / Fold change /veh PRB3 (11715151_x_at) / RFU TUBB4B (11761932_at) / Fold change /veh TUBB4B (11761932_at) / RFU CAPN14 (11732068_a_at) / Fold change /veh CAPN14 (11732068_a_at) / RFU TMCC2 (11721928_a_at) / Fold change /veh TMCC2 (11721928_a_at) / RFU IRGQ (11745062_a_at) / Fold change /veh IRGQ (11745062_a_at) / RFU FAM174B (11720279_a_at) / Fold change /veh FAM174B (11720279_a_at) / RFU TMPRSS4 (11748680_a_at) / Fold change /veh TMPRSS4 (11748680_a_at) / RFU FAM212B (11763350_a_at) / Fold change /veh FAM212B (11763350_a_at) / RFU PLEKHG5 (11743358_a_at) / Fold change /veh PLEKHG5 (11743358_a_at) / RFU ZSCAN30 (11745921_a_at) / Fold change /veh ZSCAN30 (11745921_a_at) / RFU CMKLR1 (11741424_a_at) / Fold change /veh CMKLR1 (11741424_a_at) / RFU LOC101060620 /// MAPK8IP1 (11723275_at) / Fold change /veh LOC101060620 /// MAPK8IP1 (11723275_at) / RFU SPTSSB (11747773_x_at) / Fold change /veh SPTSSB (11747773_x_at) / RFU PRSS12 (11739890_at) / Fold change /veh PRSS12 (11739890_at) / RFU BIN1 (11741810_x_at) / Fold change /veh BIN1 (11741810_x_at) / RFU WNT11 (11732464_a_at) / Fold change /veh WNT11 (11732464_a_at) / RFU C10orf10 (11716521_a_at) / Fold change /veh C10orf10 (11716521_a_at) / RFU C5orf56 (11738089_at) / Fold change /veh C5orf56 (11738089_at) / RFU CYB561 (11721691_x_at) / Fold change /veh CYB561 (11721691_x_at) / RFU ANKRD19P (11752326_a_at) / Fold change /veh ANKRD19P (11752326_a_at) / RFU OR2T12 /// OR2T33 /// OR2T8 (11738714_s_at) / Fold change /veh OR2T12 /// OR2T33 /// OR2T8 (11738714_s_at) / RFU VCAN (11748164_a_at) / Fold change /veh VCAN (11748164_a_at) / RFU JSRP1 (11732532_at) / Fold change /veh JSRP1 (11732532_at) / RFU KRTAP10-11 (11738290_x_at) / Fold change /veh KRTAP10-11 (11738290_x_at) / RFU MYO3A (11730013_a_at) / Fold change /veh MYO3A (11730013_a_at) / RFU EBF3 (11725865_a_at) / Fold change /veh EBF3 (11725865_a_at) / RFU CAMK2N1 (11719241_x_at) / Fold change /veh CAMK2N1 (11719241_x_at) / RFU C5orf56 (11738088_a_at) / Fold change /veh C5orf56 (11738088_a_at) / RFU OLFML3 (11715873_a_at) / Fold change /veh OLFML3 (11715873_a_at) / RFU LOC100653217 /// NTM (11731650_a_at) / Fold change /veh LOC100653217 /// NTM (11731650_a_at) / RFU MAPK11 (11762145_a_at) / Fold change /veh MAPK11 (11762145_a_at) / RFU FIZ1 (11724087_x_at) / Fold change /veh FIZ1 (11724087_x_at) / RFU OASL (11726364_x_at) / Fold change /veh OASL (11726364_x_at) / RFU SOX15 (11748057_x_at) / Fold change /veh SOX15 (11748057_x_at) / RFU CD79A (11719716_a_at) / Fold change /veh CD79A (11719716_a_at) / RFU HIST1H1D (11736915_at) / Fold change /veh HIST1H1D (11736915_at) / RFU CASKIN2 (11723855_a_at) / Fold change /veh CASKIN2 (11723855_a_at) / RFU LOC730098 (11760151_x_at) / Fold change /veh LOC730098 (11760151_x_at) / RFU OR4N2 (11742367_at) / Fold change /veh OR4N2 (11742367_at) / RFU PRRT2 (11749266_a_at) / Fold change /veh PRRT2 (11749266_a_at) / RFU SNX32 (11753110_a_at) / Fold change /veh SNX32 (11753110_a_at) / RFU CDHR5 (11726645_a_at) / Fold change /veh CDHR5 (11726645_a_at) / RFU RCAN1 (11760418_a_at) / Fold change /veh RCAN1 (11760418_a_at) / RFU FAM167A (11723789_a_at) / Fold change /veh FAM167A (11723789_a_at) / RFU FAM26E (11764081_at) / Fold change /veh FAM26E (11764081_at) / RFU ISYNA1 (11749810_s_at) / Fold change /veh ISYNA1 (11749810_s_at) / RFU ACY1 (11761880_at) / Fold change /veh ACY1 (11761880_at) / RFU 11764098_at / Fold change /veh 11764098_at / RFU SAMD14 (11745864_x_at) / Fold change /veh SAMD14 (11745864_x_at) / RFU NPB (11741838_a_at) / Fold change /veh NPB (11741838_a_at) / RFU TMPRSS6 (11731388_a_at) / Fold change /veh TMPRSS6 (11731388_a_at) / RFU KRTAP10-2 (11738614_at) / Fold change /veh KRTAP10-2 (11738614_at) / RFU ARHGAP8 /// PRR5-ARHGAP8 (11727945_x_at) / Fold change /veh ARHGAP8 /// PRR5-ARHGAP8 (11727945_x_at) / RFU KRTAP5-7 /// NADSYN1 (11734609_at) / Fold change /veh KRTAP5-7 /// NADSYN1 (11734609_at) / RFU RASL12 (11751679_a_at) / Fold change /veh RASL12 (11751679_a_at) / RFU CDKN2B (11736163_a_at) / Fold change /veh CDKN2B (11736163_a_at) / RFU PRF1 (11729649_at) / Fold change /veh PRF1 (11729649_at) / RFU, ZNF638 /// ZNF638-IT1 / Fold change vs veh, ZNF638 /// ZNF638-IT1 / RFU, PANK3 / Fold change vs veh, PANK3 / RFU, SH3YL1 / Fold change vs veh, SH3YL1 / RFU, ZEB2 / Fold change vs veh, ZEB2 / RFU, NRIP1 / Fold change vs veh, NRIP1 / RFU, PTTG1IP / Fold change vs veh, PTTG1IP / RFU, CAPN2 / Fold change vs veh, CAPN2 / RFU, MED14 / Fold change vs veh, MED14 / RFU, SNORA58 / Fold change vs veh, SNORA58 / RFU, C1orf63 / Fold change vs veh, C1orf63 / RFU, LRRFIP1 / Fold change vs veh, LRRFIP1 / RFU, NDUFAF7 / Fold change vs veh, NDUFAF7 / RFU, SLC12A2 / Fold change vs veh, SLC12A2 / RFU, IBTK / Fold change vs veh, IBTK / RFU, ESF1 / Fold change vs veh, ESF1 / Fold change vs veh, TMEM50B / RFU, TAOK1 / Fold change vs veh, TAOK1 / RFU, ACBD3 / Fold change vs veh, ACBD3 / RFU, TMA16 / Fold change vs veh, TMA16 / RFU, RWDD3 / Fold change vs veh, RWDD3 / RFU, BCAT1 / Fold change vs veh, BCAT1 / RFU, EDEM3 / Fold change vs veh, EDEM3 / RFU, TMEM33 / Fold change vs veh, TMEM33 / RFU, WDR75 / Fold change vs veh, WDR75 / RFU, AHCTF1 / Fold change vs veh, AHCTF1 / RFU, TFRC / Fold change vs veh, TFRC / RFU, ZDHHC17 / Fold change vs veh, ZDHHC17 / RFU, NOM1 / Fold change vs veh, NOM1 / RFU, ARL8B / Fold change vs veh, ARL8B / RFU, ZBTB11 / Fold change vs veh, ZBTB11 / RFU, TAMM41 / Fold change vs veh, TAMM41 / RFU, KIAA1704 /// LOC100996395 / Fold change vs veh, KIAA1704 /// LOC100996395 / RFU, ING1 / Fold change vs veh, ING1 / RFU, TRMT61B / Fold change vs veh, TRMT61B / RFU, FUBP3 / Fold change vs veh, FUBP3 / RFU, TP53 / Fold change vs veh, TP53 / RFU, TNKS2 / Fold change vs veh, TNKS2 / RFU, ZFP14 / Fold change vs veh, ZFP14 / RFU, ACTR2 / Fold change vs veh, ACTR2 / RFU, PPP3R1 / Fold change vs veh, PPP3R1 / RFU, PIK3R1 / Fold change vs veh, PIK3R1 / RFU, HNRNPA1 / Fold change vs veh, HNRNPA1 / RFU, RNF170 / Fold change vs veh, RNF170 / RFU, ZNF28 / Fold change vs veh, ZNF28 / RFU, RNGTT / Fold change vs veh, RNGTT / RFU, OGT / Fold change vs veh, OGT / RFU, BRD1 / Fold change vs veh, BRD1 / RFU, MARS / Fold change vs veh, MARS / RFU, ZNF655 / Fold change vs veh, ZNF655 / RFU, FAHD1 / Fold change vs veh, FAHD1 / RFU, BDP1 / Fold change vs veh, BDP1 / RFU, LRRCC1 / Fold change vs veh, LRRCC1 / RFU, ARID1A / Fold change vs veh, ARID1A / RFU, ZNF146 / Fold change vs veh, ZNF146 / RFU, ZNF330 / Fold change vs veh, ZNF330 / RFU, GPN3 / Fold change vs veh, GPN3 / RFU, C9orf123 / Fold change vs veh, C9orf123 / RFU, N4BP2L2 / Fold change vs veh, N4BP2L2 / RFU, ARFIP1 / Fold change vs veh, ARFIP1 / RFU, FAM179B / Fold change vs veh, FAM179B / RFU, BCL10 / Fold change vs veh, BCL10 / RFU, UHRF1BP1L / Fold change vs veh, UHRF1BP1L / RFU, BET1 / Fold change vs veh, BET1 / RFU, CNOT2 / Fold change vs veh, CNOT2 / RFU, ZNF268 / Fold change vs veh, ZNF268 / Fold change vs veh, ZNF507 / RFU, DGCR2 / Fold change vs veh, DGCR2 / RFU, WDSUB1 / Fold change vs veh, WDSUB1 / Fold change vs veh, HSP90B1 /// MIR3652 / RFU, ADSS / Fold change vs veh, ADSS / RFU, GK / Fold change vs veh, GK / RFU, ZNF148 / Fold change vs veh, ZNF148 / RFU, TAF9 / Fold change vs veh, TAF9 / RFU, SLC1A5 / Fold change vs veh, SLC1A5 / RFU, SLMO2 / Fold change vs veh, SLMO2 / RFU, ABCC4 / Fold change vs veh, ABCC4 / RFU, LOC101060439 /// RAP1B / Fold change vs veh, LOC101060439 /// RAP1B / RFU, RFX7 / Fold change vs veh, RFX7 / RFU, GTPBP10 / Fold change vs veh, GTPBP10 / RFU, CNEP1R1 / Fold change vs veh, CNEP1R1 / RFU, BIVM-ERCC5 /// ERCC5 / Fold change vs veh, BIVM-ERCC5 /// ERCC5 / RFU, ILF3 / Fold change vs veh, ILF3 / RFU 11762660_at / Fold change /veh 11762660_at / RFU VCAN (11757783_s_at) / Fold change /veh VCAN (11757783_s_at) / RFU DDX43 (11728927_at) / Fold change /veh DDX43 (11728927_at) / RFU KRT8 (11758188_x_at) / Fold change /veh KRT8 (11758188_x_at) / RFU NKD1 (11759106_at) / Fold change /veh NKD1 (11759106_at) / RFU SRD5A1 (11742802_a_at) / Fold change /veh SRD5A1 (11742802_a_at) / RFU TPSAB1 /// TPSB2 (11721975_s_at) / Fold change /veh TPSAB1 /// TPSB2 (11721975_s_at) / RFU GSTM3 (11746129_a_at) / Fold change /veh GSTM3 (11746129_a_at) / RFU IL23R (11737362_x_at) / Fold change /veh IL23R (11737362_x_at) / RFU TMEM51 (11727254_a_at) / Fold change /veh TMEM51 (11727254_a_at) / RFU PIWIL2 (11732686_x_at) / Fold change /veh PIWIL2 (11732686_x_at) / RFU ORM1 (11744905_x_at) / Fold change /veh ORM1 (11744905_x_at) / RFU CCDC152 (11743942_at) / Fold change /veh CCDC152 (11743942_at) / RFU ECM1 (11717891_a_at) / Fold change /veh ECM1 (11717891_a_at) / RFU IL23R (11748794_a_at) / Fold change /veh IL23R (11748794_a_at) / RFU TNFAIP8L3 (11732012_x_at) / Fold change /veh TNFAIP8L3 (11732012_x_at) / RFU MBOAT4 (11741988_at) / Fold change /veh MBOAT4 (11741988_at) / RFU 11764193_at / Fold change /veh 11764193_at / RFU TMEM53 (11763286_at) / Fold change /veh TMEM53 (11763286_at) / RFU MAGEB2 (11727129_at) / Fold change /veh MAGEB2 (11727129_at) / RFU TMEM200A (11744735_a_at) / Fold change /veh TMEM200A (11744735_a_at) / RFU CCDC152 (11751479_a_at) / Fold change /veh CCDC152 (11751479_a_at) / RFU FAM211A (11726209_a_at) / Fold change /veh FAM211A (11726209_a_at) / RFU RGS16 (11746705_a_at) / Fold change /veh RGS16 (11746705_a_at) / RFU VCAN (11755009_s_at) / Fold change /veh VCAN (11755009_s_at) / RFU RHOB (11743442_s_at) / Fold change /veh RHOB (11743442_s_at) / RFU RGS16 (11720943_a_at) / Fold change /veh RGS16 (11720943_a_at) / RFU RGS16 (11720944_at) / Fold change /veh RGS16 (11720944_at) / RFU, VPS4B / Fold change vs veh, VPS4B / RFU, CREB1 / Fold change vs veh, CREB1 / RFU, DNAJC13 / Fold change vs veh, DNAJC13 / RFU, GNAQ / Fold change vs veh, GNAQ / RFU, CDK5R1 / Fold change vs veh, CDK5R1 / RFU, ZRANB3 / Fold change vs veh, ZRANB3 / RFU, CUL4A / Fold change vs veh, CUL4A / RFU, CCNY / Fold change vs veh, CCNY / RFU, UFL1 / Fold change vs veh, UFL1 / RFU, COG3 / Fold change vs veh, COG3 / RFU, DIAPH2 / Fold change vs veh, DIAPH2 / RFU, SKA2 / Fold change vs veh, SKA2 / RFU, AFF3 / Fold change vs veh, AFF3 / RFU, LMF1 / Fold change vs veh, LMF1 / RFU, IPO11 / Fold change vs veh, IPO11 / RFU, DFFB / Fold change vs veh, DFFB / RFU, FOXP1 / Fold change vs veh, FOXP1 / RFU, CARD8 / Fold change vs veh, CARD8 / RFU, STRN3 / Fold change vs veh, STRN3 / RFU, ADK / Fold change vs veh, ADK / RFU, RASSF2 / Fold change vs veh, RASSF2 / RFU, WIPF1 / Fold change vs veh, WIPF1 / RFU, LARP1B / Fold change vs veh, LARP1B / RFU, RASA1 / Fold change vs veh, RASA1 / RFU, RB1 / Fold change vs veh, RB1 / RFU, PPFIA1 / Fold change vs veh, PPFIA1 / RFU, MAT2A / Fold change vs veh, MAT2A / RFU, CCT5 / Fold change vs veh, CCT5 / RFU, WDR92 / Fold change vs veh, WDR92 / RFU, CUX1 / Fold change vs veh, CUX1 / RFU, TTC7A / Fold change vs veh, TTC7A / RFU, TMEM135 / Fold change vs veh, TMEM135 / RFU, DEPTOR / Fold change vs veh, DEPTOR / RFU, CPM / Fold change vs veh, CPM / RFU, DNAJB6 / Fold change vs veh, DNAJB6 / RFU, CACNA2D3 / Fold change vs veh, CACNA2D3 / RFU, DTX4 / Fold change vs veh, DTX4 / RFU, TFCP2 / Fold change vs veh, TFCP2 / RFU, GMCL1 /// GMCL1P1 / Fold change vs veh, GMCL1 /// GMCL1P1 / RFU, AEBP2 / Fold change vs veh, AEBP2 / RFU, SNHG1 /// SNORD22 /// SNORD25 /// SNORD26 /// SNORD27 /// SNORD28 /// SNORD29 /// SNORD31 / Fold change vs veh, SNHG1 /// SNORD22 /// SNORD25 /// SNORD26 /// SNORD27 /// SNORD28 /// SNORD29 /// SNORD31 / Fold change (Aza/veh), C12orf56 (ProbeSet 11735607_a_at) / Fold change (ACY-1035/veh), C12orf56 (ProbeSet 11735607_a_at) / Fold change (Aza/veh), FGFR1OP (ProbeSet 11751329_s_at) / Fold change (ACY-1035/veh), FGFR1OP (ProbeSet 11751329_s_at) / Fold change (Aza/veh), VPS36 (ProbeSet 11739960_a_at) / Fold change (ACY-1035/veh), VPS36 (ProbeSet 11739960_a_at) / RFU SYPL1 (11715823_x_at) / Fold change /veh SYPL1 (11715823_x_at) / RFU IGFBP7 (11715501_s_at) / Fold change /veh IGFBP7 (11715501_s_at) / RFU REEP3 (11722064_at) / Fold change /veh REEP3 (11722064_at) / RFU IGLL1 (11728026_x_at) / Fold change /veh IGLL1 (11728026_x_at): dose or concentration left out as unconfirmed. Conditions: ProbeSet 11725901_x_at; LIST B.

Consider `Nc1ncn([C@@H]2O[C@H](CO)[C@@H](O)[C@H]2O)c(=O)n1` [azacitidine], for which the “Fold change vs veh, RWDD3” value was 0.96.

The values are drawn from publication PMC5218480 (PLoS ONE, 2017).
